Data from PubChem BioAssay AID248 (DTP/NCI, 2004).
“And” between values parts separate entries of the source, which are not always exact repeats. Identical values can stand only once. Toxic doses and inconclusive results are not listed. Rule as the data show it: active = T/C of 150% or more; inactive = T/C below 125%.

Test system: L1210 leukemia ip in BDF1 mice, survival T/C
Assay: NCI In Vivo Anticancer Drug Screen. Data for tumor model L1210 Leukemia (intraperitoneal) in B6D2F1 (BDF1) mice
Details: endpoint: mean survival time, higher = longer survival
Summary of the method: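 Mice bearing the transplanted tumor received compound or vehicle. Survival of the treated group was divided by that of the vehicle-treated control group to give the ratio.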

[1] = dose: 100.0 mg/kg/injection, schedule: Q01DX001 (ip), vehicle: carboxymethylcellulose (CMC)
[2] = dose: 100.0 mg/kg/injection, schedule: Q01DX009 (ip), vehicle: carboxymethylcellulose (CMC)
[3] = dose: 100.0 mg/kg/injection, schedule: Q04DX003 (ip), vehicle: carboxymethylcellulose (CMC)
[4] = dose: 200.0 mg/kg/injection, schedule: Q01DX001 (ip), vehicle: carboxymethylcellulose (CMC)
[5] = dose: 200.0 mg/kg/injection, schedule: Q01DX009 (ip), vehicle: carboxymethylcellulose (CMC)
[6] = dose: 200.0 mg/kg/injection, schedule: Q04DX003 (ip), vehicle: carboxymethylcellulose (CMC)
[7] = dose: 400.0 mg/kg/injection, schedule: Q01DX001 (ip), vehicle: carboxymethylcellulose (CMC)
[8] = dose: 400.0 mg/kg/injection, schedule: Q01DX009 (ip), vehicle: carboxymethylcellulose (CMC)
[9] = dose: 400.0 mg/kg/injection, schedule: Q04DX003 (ip), vehicle: carboxymethylcellulose (CMC)
[10] = dose: 100.0 mg/kg/injection, schedule: Q01DX009 (ip), vehicle: saline with Tween-80
[11] = dose: 100.0 mg/kg/injection, schedule: Q04DX003 (ip), vehicle: saline
[12] = dose: 200.0 mg/kg/injection, schedule: Q04DX003 (ip), vehicle: saline
[13] = dose: 400.0 mg/kg/injection, schedule: Q04DX003 (ip), vehicle: saline
[14] = dose: 100.0 mg/kg/injection, schedule: Q04DX003 (ip), vehicle: Klucel (hydroxypropylcellulose) (HPC)
[15] = dose: 200.0 mg/kg/injection, schedule: Q04DX003 (ip), vehicle: Klucel (hydroxypropylcellulose) (HPC)
[16] = dose: 400.0 mg/kg/injection, schedule: Q04DX003 (ip), vehicle: Klucel (hydroxypropylcellulose) (HPC)
[17] = dose: 100.0 mg/kg/injection, schedule: Q01DX001 (ip), vehicle: saline with Tween-80
[18] = dose: 100.0 mg/kg/injection, schedule: Q04DX003 (ip), vehicle: saline with Tween-80
[19] = dose: 200.0 mg/kg/injection, schedule: Q01DX001 (ip), vehicle: saline with Tween-80
[20] = dose: 200.0 mg/kg/injection, schedule: Q04DX003 (ip), vehicle: saline with Tween-80
[21] = dose: 400.0 mg/kg/injection, schedule: Q01DX001 (ip), vehicle: saline with Tween-80
[22] = dose: 100.0 mg/kg/injection, schedule: Q01DX001 (ip), vehicle: Klucel (hydroxypropylcellulose) (HPC)
[23] = dose: 200.0 mg/kg/injection, schedule: Q01DX001 (ip), vehicle: Klucel (hydroxypropylcellulose) (HPC)
[24] = dose: 100.0 mg/kg/injection, schedule: Q01DX009 (ip), vehicle: saline
[25] = dose: 200.0 mg/kg/injection, schedule: Q01DX009 (ip), vehicle: saline
[26] = dose: 400.0 mg/kg/injection, schedule: Q01DX009 (ip), vehicle: saline

Measured: T/C

CCOC(=O)c1cc(Cl)c2c(ccc3ccccc32)n1
inactive: [1] 115 % of control | [2] 92 % of control | dose: 100.0 mg/kg/injection, schedule: Q04DX002 (ip), vehicle: carboxymethylcellulose (CMC) 100 % of control and 103 % of control | [3] 105 % of control | [4] 103 % of control | [5] 92 % of control | dose: 200.0 mg/kg/injection, schedule: Q04DX002 (ip), vehicle: carboxymethylcellulose (CMC) 93 % of control and 97 % of control | [6] 115 % of control | [7] 97 % of control | [8] 98 % of control | dose: 400.0 mg/kg/injection, schedule: Q04DX002 (ip), vehicle: carboxymethylcellulose (CMC) 93 % of control and 95 % of control | [9] 107 % of control

NC(CCl)=NCCCN1CCCCC1
inactive: dose: 12.5 mg/kg/injection, schedule: Q01DX009 (ip), vehicle: Klucel (hydroxypropylcellulose) (HPC) 104 % of control | dose: 12.5 mg/kg/injection, schedule: Q04DX002 (ip), vehicle: Klucel (hydroxypropylcellulose) (HPC) 107 % of control | dose: 25.0 mg/kg/injection, schedule: Q01DX009 (ip), vehicle: Klucel (hydroxypropylcellulose) (HPC) 96 % of control | dose: 25.0 mg/kg/injection, schedule: Q04DX002 (ip), vehicle: Klucel (hydroxypropylcellulose) (HPC) 96 % of control | dose: 50.0 mg/kg/injection, schedule: Q04DX002 (ip), vehicle: Klucel (hydroxypropylcellulose) (HPC) 105 % of control

Cc1nc(N)c2nonc2n1
inactive: [10] 89 % of control

OCNC(=S)SSC(=S)NCO
inactive: [11] 96 % of control | [12] 98 % of control | [13] 98 % of control

O=C(O)CC1(C(=O)O)CC2CCC1C2 (stereo not drawn)
inactive: [2] 91 % of control | [3] 103 % of control | [5] 94 % of control | [6] 103 % of control | [8] 92 % of control | [9] 100 % of control

CC(Br)(CBr)CCC(C)(Br)CBr (stereo not drawn)
inactive: [14] 94 % of control | [15] 96 % of control | [16] 91 % of control

Cc1cc(Cl)ccc1NC(=O)Nc1cccc(F)c1
inactive: dose: 100.0 mg/kg/injection, schedule: Q01DX009 (ip), vehicle: Klucel (hydroxypropylcellulose) (HPC) 88 % of control | dose: 200.0 mg/kg/injection, schedule: Q01DX009 (ip), vehicle: Klucel (hydroxypropylcellulose) (HPC) 90 % of control | dose: 400.0 mg/kg/injection, schedule: Q01DX009 (ip), vehicle: Klucel (hydroxypropylcellulose) (HPC) 86 % of control

Cc1ccc(C(=O)c2ccccc2)c(C)c1
inactive: [1] 86 % of control | [7] 92 % of control

O=C1NC2C3CCC(C3)C12 (stereo not drawn)
inactive: dose: 10.0 mg/kg/injection, schedule: Q04DX002 (ip), vehicle: saline 90 % of control | dose: 20.0 mg/kg/injection, schedule: Q04DX002 (ip), vehicle: saline 107 % of control | dose: 40.0 mg/kg/injection, schedule: Q04DX002 (ip), vehicle: saline 93 % of control

CC(=O)c1sc2sc(C(C)=O)c(NC(=S)Nc3cccc(C(F)(F)F)c3)c2c1NC(=S)Nc1cccc(C(F)(F)F)c1
inactive: dose: 50.0 mg/kg/injection, schedule: Q04DX002 (ip), vehicle: saline with Tween-80 98 % of control and 99 % of control | [17] 96 % of control | [10] 96 % of control and 89 % of control | [18] 93 % of control | [19] 92 % of control | dose: 200.0 mg/kg/injection, schedule: Q01DX009 (ip), vehicle: saline with Tween-80 101 % of control and 86 % of control | [20] 90 % of control | [21] 100 % of control | dose: 400.0 mg/kg/injection, schedule: Q01DX009 (ip), vehicle: saline with Tween-80 96 % of control and 91 % of control

CCN(CC)C(/C=C/c1ccccc1)=N\S(=O)(=O)c1ccccc1
inactive: dose: 50.0 mg/kg/injection, schedule: Q01DX001 (ip), vehicle: Klucel (hydroxypropylcellulose) (HPC) 102 % of control | [22] 105 % of control | [23] 104 % of control

Clc1ccc(-c2cc[s+]s2)cc1
inactive: dose: 12.5 mg/kg/injection, schedule: Q01DX009 (ip), vehicle: water 91 % of control | dose: 25.0 mg/kg/injection, schedule: Q04DX003 (ip), vehicle: water 100 % of control | dose: 50.0 mg/kg/injection, schedule: Q01DX009 (ip), vehicle: water 88 % of control | dose: 50.0 mg/kg/injection, schedule: Q04DX003 (ip), vehicle: water 98 % of control | dose: 100.0 mg/kg/injection, schedule: Q04DX003 (ip), vehicle: water 98 % of control and 92 % of control

Cc1c(O)ccc(C(=O)CCl)c1O
inactive: dose: 12.0 mg/kg/injection, schedule: Q01DX009 (ip), vehicle: saline with Tween-80 100 % of control | dose: 25.0 mg/kg/injection, schedule: Q01DX009 (ip), vehicle: saline with Tween-80 102 % of control and 107 % of control | [14] 106 % of control | [15] 102 % of control

Cc1nc(N)[nH]c(=O)c1N
inactive: dose: 75.0 mg/kg/injection, schedule: Q01DX001 (ip), vehicle: saline with Tween-80 106 % of control | [14] 100 % of control | dose: 150.0 mg/kg/injection, schedule: Q01DX001 (ip), vehicle: saline with Tween-80 101 % of control | [15] 96 % of control | dose: 300.0 mg/kg/injection, schedule: Q01DX001 (ip), vehicle: saline with Tween-80 103 % of control | [16] 92 % of control

CC(C)(C)C1CCC(C(=O)c2ccccc2)CC1 (stereo not drawn)
inactive: [18] 100 % of control | [20] 94 % of control | dose: 400.0 mg/kg/injection, schedule: Q04DX003 (ip), vehicle: saline with Tween-80 89 % of control

CC(C)C(C)/C=C/C(C)C1CCC2C3CCC4CC(O)CCC4(C)C3CCC12C (stereo not drawn)
inactive: [22] 90 % of control | [23] 97 % of control

CCCCCCCNC(=S)OCC
inactive: dose: 100.0 mg/kg/injection, schedule: Q04DX002 (ip), vehicle: saline with Tween-80 100 % of control | dose: 200.0 mg/kg/injection, schedule: Q04DX002 (ip), vehicle: saline with Tween-80 107 % of control | dose: 400.0 mg/kg/injection, schedule: Q04DX002 (ip), vehicle: saline with Tween-80 107 % of control

CC1(C)CCCC(Cl)(C(Cl)c2ccccc2)C1=O (stereo not drawn)
inactive: [24] 90 % of control | [11] 104 % of control | [25] 95 % of control | [12] 102 % of control | [26] 91 % of control | [13] 104 % of control

CN(C)/N=C/c1ccccc1O
inactive: [24] 96 % of control | [25] 104 % of control | [26] 96 % of control

O=C(O)c1ccccc1C(=O)c1ccc2cccc(F)c2c1
inactive: [22] 105 % of control | [23] 120 % of control | dose: 400.0 mg/kg/injection, schedule: Q01DX001 (ip), vehicle: Klucel (hydroxypropylcellulose) (HPC) 100 % of control

N#CC(c1ccc(Cl)cc1)c1ccccn1 (stereo not drawn)
inactive: dose: 75.0 mg/kg/injection, schedule: Q04DX003 (ip), vehicle: other 96 % of control | dose: 150.0 mg/kg/injection, schedule: Q04DX003 (ip), vehicle: other 96 % of control | dose: 300.0 mg/kg/injection, schedule: Q04DX003 (ip), vehicle: other 94 % of control

CNC1CCCCC1
inactive: dose: 50.0 mg/kg/injection, schedule: Q01DX001 (ip), vehicle: carboxymethylcellulose (CMC) 96 % of control | [1] 102 % of control | [4] 106 % of control | [7] 112 % of control

Cc1ccc(NN)c(I)c1
inactive: [17] 97 % of control | [19] 93 % of control | [21] 95 % of control

COC(=O)CC(c1ccc(Cl)cc1)N1CCCCC1 (stereo not drawn)
inactive: dose: 100.0 mg/kg/injection, schedule: Q01DX001 (ip), vehicle: saline 98 % of control | dose: 200.0 mg/kg/injection, schedule: Q01DX001 (ip), vehicle: saline 102 % of control | dose: 400.0 mg/kg/injection, schedule: Q01DX001 (ip), vehicle: saline 96 % of control
